Entries after “also recorded” stand apart in the source; their conditions may differ.
Biological target: T1, TLR9 (Mus musculus, UniProt Q9EQU3)
T1 construct: from tissue; host or cells: whole animal: C57BL/6, FVB and FVB GADD34ΔC/ΔC mice
T1 sequence (Q9EQU3 26-1032): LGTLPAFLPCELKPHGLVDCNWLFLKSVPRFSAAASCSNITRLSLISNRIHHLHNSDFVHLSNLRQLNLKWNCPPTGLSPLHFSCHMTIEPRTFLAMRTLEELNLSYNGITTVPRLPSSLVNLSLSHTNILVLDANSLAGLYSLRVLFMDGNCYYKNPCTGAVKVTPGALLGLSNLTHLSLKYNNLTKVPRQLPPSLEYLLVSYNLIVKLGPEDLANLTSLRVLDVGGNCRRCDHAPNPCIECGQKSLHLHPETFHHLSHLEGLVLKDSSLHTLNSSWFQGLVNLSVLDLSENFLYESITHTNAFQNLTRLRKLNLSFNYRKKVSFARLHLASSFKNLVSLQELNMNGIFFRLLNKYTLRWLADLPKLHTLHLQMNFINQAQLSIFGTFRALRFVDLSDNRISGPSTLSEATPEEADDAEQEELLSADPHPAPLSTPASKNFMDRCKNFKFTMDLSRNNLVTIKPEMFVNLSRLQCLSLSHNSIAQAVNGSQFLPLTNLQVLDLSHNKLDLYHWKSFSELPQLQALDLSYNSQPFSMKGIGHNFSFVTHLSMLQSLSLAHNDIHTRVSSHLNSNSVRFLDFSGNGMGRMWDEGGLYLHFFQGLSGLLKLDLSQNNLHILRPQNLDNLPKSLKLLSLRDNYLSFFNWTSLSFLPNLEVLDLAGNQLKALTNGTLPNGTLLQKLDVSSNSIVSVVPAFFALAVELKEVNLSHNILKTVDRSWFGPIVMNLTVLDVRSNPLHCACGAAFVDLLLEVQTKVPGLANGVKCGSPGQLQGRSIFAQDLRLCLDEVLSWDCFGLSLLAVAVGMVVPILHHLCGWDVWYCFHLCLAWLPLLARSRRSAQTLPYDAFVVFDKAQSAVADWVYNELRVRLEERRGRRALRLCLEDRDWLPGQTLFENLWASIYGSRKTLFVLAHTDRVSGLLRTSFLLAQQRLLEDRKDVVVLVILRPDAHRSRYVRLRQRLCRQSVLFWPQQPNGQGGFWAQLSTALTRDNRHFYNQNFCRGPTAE
Assay: Cytokine production and gene expression in sorted Flt3L-DC pDCs activated with CpG ODN 1585
Assay type: cell-based
Description: FIG. 1: Guanabenz inhibits TLR3 and TLR9 activation in mouse Flt3-L DCs and human blood pDCs. A) Sorted bone marrow derived Flt3L-DCs were activated for 6 h with 10 μg/mL poly I:C LMW (TLR3 in DC1) or 1 μM ODN 1585 (TLR9 in pDCs). GBZ was added at 50 μM and inhibited IFN-β and Interleukin-6 (IL-6) production in activated cells. B) […], hTLR3, hTLR9 and hTLR7 expressed in the reporter HEK-Blue™ cells are inhibited by GBZ. TLR-expressing HEK-Blue™ cells were respectively activated with 100 ng/mL LPS, 10 μg/mL poly I:C LMW, 2.5 μM ODN 2006 or 5 μg/mL imiquimod, respectively. GBZ was added at 50 μM. TLR activity was measured indirectly through SEAP activity as absorbance at 405 nm. GBZ inhibited human TLR3, TLR7 and TLR9 signaling, but not TLR4._C) Human primary pDCs were isolated from blood and activated either with 3 μM CpG ODN 2216 (top) or with 2% of anti-DNA IgG containing serum from lupus patients (bottom). GBZ was added at 50 μM. Protein concentration of IFN-α and TNF-α secreted were measured at the indicated time points or at 16 h. Statistical significance was assigned using two tailed t-test on at least n=3 independent experiments (* p<0.05; ** p<0.005; ***p<0.0005).
BM-derived DCs were differentiated in vitro from the bone marrow of 6-8 weeks old male mice, using either FLT3 ligand or GM-CSF. Flt3L-DCs were used for experiments between days 6 and 7. Flt3L was produced using B16-Flt3L hybridoma cells. Bone marrow progenitors were plated at 1.5 10^6 cells/ml, 4 ml/well in 6 well plate, and cultivated with RPMI (GIBCO), 10% FCS (Sigma Aldrich), 100 units/ml penicillin and 100 μg/ml streptomycin (GIBCO), 50 μM b-mercaptoethanol (VWR) and Flt3L. For sorted Flt3L-DCs, cells were gently harvested at day 7 with cold PBS 2% FCS, centrifuged 1200 rpm 5 min at 4° C., counted and stained with for 30 mins at 4° C. Cells were sorted with the FACS ARIASorp. Cells were kept on ice all the time. […]
ODN 2006, 2216, 1585 and 1826, Poly I:C High and Low Molecular Weight are from InvivoGen, San Diego, Calif.; lipopolysaccharide (Escherichia coli 055:B5), clonidine, chloroquine, D-(+)-Galactosamine hydrochloride and 25-HC are from Sigma Aldrich; Guanabenz is from Tocris Bioscience. For quantitative PCR, total RNAs were extracted and purified using the RNeasy Mini Kit (Qiagen). […] Each gene transcripts were quantified by SYBR Green method with 7500Fast (Applied Biosystems). The relative amount of each transcript was determined by normalizing to internal housekeeping gene expression.
Mouse IFN-β quantification in culture supernatant was performed using the Mouse Interferon Beta ELISA kit (PBL InterferonSource); mouse IL-6, TNFα, IL-10, human TNFα and human IFNα were quantified using ELISA kit (eBioscience) respectively, according to manufacturer instructions. […]

[1] = sorted pDCs, 1 μM ODN 1585 6 h, GBZ 50 μM

Compound: NC(N)=N/N=C/c1c(Cl)cccc1Cl [GBZ, 2-(2,6-dichlorobenzylidene)-hydrazinecarboximidamide]
- transcriptional response to CpG ODN (ifna4, Tnfa, isg15, Il12 by qPCR) (pDC, data not shown): inhibited completely
- impact on cell fitness (sorted cDC1 and pDCs treated with GBZ): without any impact
- IFN-β production [1]: nearly abrogated; also recorded: inhibited
- IL-6 production [1]: nearly abrogated; also recorded: inhibited

Source: US20210177814A1, “USE OF GUANABENZ OR DERIVATES THEREOF FOR THE TREATMENT OF TYPE I IFN-DEPENDENT PATHOLOGIES” (INSERM (Institut National de la Santé et de la Recherche …, priority 2018, published 2021)
